Laboratory results reported in US9493506B2 (Enanta Pharmaceuticals, Inc., priority 2010, dated 2016).

Assays:
[1] = tested on: HCV replicon with a D168E mutation in a 1a-H77 background; assay: transient replicon assay, D168E mutation in 1a-H77 background; assay type: cell-based, hepatitis C virus (genotype 1a-H77); conditions: Hepatitis C virus, read-out: EC50 in a transient replicon assay with a D168E mutation in a 1a-H77 background
Procedure, shortened: (§1)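 Transient transfection of mutant replicon RNA (1a-H77 with NS2–NS5B, or 1b-N with NS3–NS5B plus E1202G/S2204I) by electroporation into IFN-cured Huh7 cells, plated at 7.5×10^3 cells per well in DMEM with 5% FBS. Serial compound dilutions added 4 h post-transfection (0.5% DMSO final).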

[2] = tested on: HCV replicon with a D168V mutation in a 1a-H77 background; assay: transient replicon assay, D168V mutation in 1a-H77 background; assay type: cell-based, hepatitis C virus (genotype 1a-H77); conditions: Hepatitis C virus, read-out: EC50 in a transient replicon assay with a D168V mutation in a 1a-H77 background
Procedure, shortened: as §1

[3] = tested on: HCV replicon with a R155K mutation in a 1b-N background; assay: transient replicon assay, R155K mutation in 1b-N background; assay type: cell-based, hepatitis C virus (genotype 1b-N); conditions: Hepatitis C virus, read-out: EC50 in a transient replicon assay with a R155K mutation in a 1b-N background
Procedure: Replicon cell lines can be maintained in Dulbecco's modified Eagles medium (DMEM) containing 100 IU/ml penicillin, […] streptomycin (Invitrogen), […] G418 (Invitrogen) and 10% (v/v) fetal bovine serum (FBS). Replicon-containing cells can be seeded into 96 well plates at a density of 5000 cells per well in 100 μl DMEM containing 5% FBS. The next day, the compound can be initially diluted in dimethyl sulfoxide (DMSO) to generate a 200× stock of the inhibitor in a series of 8 half-log dilutions. The dilution series can then be diluted 100-fold in the medium containing 5% FBS. […] The inhibitory effects of compounds against the replicons can be determined by measuring either the level of luciferase or HCV RNA. […] Luciferin solution (50 μl, Promega) is added, and luciferase activity is measured with a Victor II luminometer (Perkin-Elmer). To determine HCV RNA levels, RNA extractions can be performed using the CellsDirect kit (Invitrogen), and the HCV RNA copy number can be measured using the SuperScript III Platinum One-Step qRT-PCR system (Invitrogen) and primers specific to the HCV 5′ nontranslated region. Cytotoxicity can be determined by the 3-[4,5-dimethylhiazol-2-yl]-2,5-diphenyltetrazolium bromide (MTT) colorimetric assay as follows. […] The plates are incubated overnight and the optical density can be measured at 570 nm. […]

CCc1nc2cccc(F)c2nc1O[C@@H]1C[C@H]2C(=O)N[C@]3(C(=O)NS(=O)(=O)C4(C)CC4)C[C@H]3/C=C\CCCCC[C@H](NC(=O)OC(C)(C)C)C(=O)N2C1 [Example 164, tert-butyl (2R,6S,13aS,14aR,16aS,Z)-2-(3-ethyl-8-fluoroquinoxalin-2-yloxy)-14a-(1-methylcyclopropylsulfonylcarbamoyl)-5,16-dioxo-1,2,3,5,6,7,8,9,10,11,13a,14,14a,15,16,16a-hexadecahydrocyclopropa[e]pyrrolo[1,2-a][1,4]diazacyclopentadecin-6-ylcarbamate]
EC50 [1]: 20 to 50 nM | EC50 [2]: 50 to 250 nM | EC50 [3]: 1 to 10 nM
